{"source": "paper PMC12992715", "about": "“Dual interference with host neuropeptide signaling allows parasitoid wasp to hijack host sugar metabolism” (The EMBO Journal, 2025)", "key": {"PxHK mRNA in the midgut": {"test_system": "PxHK mRNA in the midgut", "assay": "Ex vivo midgut incubation with sNPF and signalling inhibitors, PxHK mRNA", "format": "cell-based, Plutella xylostella", "conditions": "Fig 6F", "experimental": "The in vitro incubations of fat body or midgut were performed as previously described with minor modifications (Cheng et al, [2022]). The fat bodies and midguts from non-parasitised middle 4th instar P. xylostella larvae were collected in 0.5 mL of PBS. The collected tissues were then preincubated in culture dishes containing TNM-FH medium (HyClone) for 30 min. sNPF peptides or inhibitors were administered to isolated fat body and midgut in vitro using a modified method from a previous study (Oh et al, [2019]). 1 mM stock solution of pertussis toxin (PTX, Tocris Bioscience) or U73122 (MedChemExpress) was dissolved in DMSO (Sigma-Aldrich) and kept at −80 °C. 0.1 ng/µl PTX or 10 µM U73122 were then mixed with 20 µM sNPF-contained TNM-FH medium. Preincubated tissues were incubated in these mixtures at 25 °C for 1 h, followed by total RNA isolation and qPCR."}, "P. xylostella larvae": {"test_system": "P. xylostella larvae", "assay": "Feeding time and feeding interval time", "format": "in vivo, Plutella xylostella", "conditions": "sPxsNPF-1-injected, middle 4th instar; words", "description": "Appendix Figure S4. PxsNPF is mainly expressed in the CNS and midgut-trachea of the host as an appetite-suppressing hormone\n(A) Relative mRNA levels of PxsNPF in different tissues of non-parasitized and C. vestalis-parasitized host larvae at late 3rd instar (n = 3). (B) Left: schematic diagram of the general composition and cell types of the midgut. EC, enterocyte; ISC, intestinal stem cell; EB, enteroblast; EE, enteroendocrine cell; BM, basement membrane; VM, visceral muscle. Right: PxsNPF (red) is expressed in the tracheae of the midgut (white arrowheads). Nuclei were labelled by DAPI (blue). NP: non-parasitized hosts, P: parasitized hosts. Scale bars, 200 μm. (C) Immunostaining of PxsNPF prepropeptide (red) in the whole midgut of non-parasitized and parasitized P. xylostella larvae at late 3rd-instar. White dashed boxes indicate areas magnified in Fig.\n5E. Nuclei were labelled by DAPI (blue). Scale bar: 500 μm. (D) Feeding time (left, n = 40 for grey, n = 23 for blue, n = 54 for red, n = 29 for purple) and interval time (right, n = 35 for grey, n = 13 for blue, n = 33 for red, n = 25 for purple) of non-parasitized, C. vestalis-parasitized, and sPxsNPF-1-injected and sCvsNPF-injected P. xylostella larvae at middle 4th-instar during feeding behaviour. Data are represented as […]\nTwo-tailed unpaired Student’s t-test, except for (D) (One-way ANOVA and Tukey’s multiple comparison tests). […]"}}, "note": "No end group written: not given here."}
{"substance": "SVRSPSRRLRF-NH2 [sPxsNPF-1, synthetic short neuropeptide F-1 of Plutella xylostella]", "values": [{"measurement": "PxHK relative expression", "setting": "PxHK mRNA in the midgut; sPxsNPF-1+PTX, Average of 5 replicates, SD 0.30, control DMSO average 1.00", "value": 1.96}, {"measurement": "PxHK relative expression", "setting": "PxHK mRNA in the midgut; sPxsNPF-1+PTX, replicate 1", "value": 2.33}, {"measurement": "PxHK relative expression", "setting": "PxHK mRNA in the midgut; sPxsNPF-1+PTX, replicate 2", "value": 1.83}, {"measurement": "PxHK relative expression", "setting": "PxHK mRNA in the midgut; sPxsNPF-1+PTX, replicate 3", "value": 1.61}, {"measurement": "PxHK relative expression", "setting": "PxHK mRNA in the midgut; sPxsNPF-1+PTX, replicate 4", "value": 1.83}, {"measurement": "PxHK relative expression", "setting": "PxHK mRNA in the midgut; sPxsNPF-1+PTX, replicate 5", "value": 2.18}, {"measurement": "PxHK relative expression", "setting": "PxHK mRNA in the midgut; sPxsNPF-1+U73122, Average of 5 replicates, SD 0.13, control DMSO average 1.00", "value": 0.98}, {"measurement": "PxHK relative expression", "setting": "PxHK mRNA in the midgut; sPxsNPF-1+U73122, replicate 1", "value": 1.03}, {"measurement": "PxHK relative expression", "setting": "PxHK mRNA in the midgut; sPxsNPF-1+U73122, replicate 2", "value": 0.92}, {"measurement": "PxHK relative expression", "setting": "PxHK mRNA in the midgut; sPxsNPF-1+U73122, replicate 3", "value": 1.06}, {"measurement": "PxHK relative expression", "setting": "PxHK mRNA in the midgut; sPxsNPF-1+U73122, replicate 4", "value": 0.79}, {"measurement": "PxHK relative expression", "setting": "PxHK mRNA in the midgut; sPxsNPF-1+U73122, replicate 5", "value": 1.11}, {"measurement": "PxHK relative expression", "setting": "PxHK mRNA in the midgut; sPxsNPF-1 without inhibitor, Average of 5 replicates, SD 0.18, control DMSO average 1.00", "value": 1.73}, {"measurement": "PxHK relative expression", "setting": "PxHK mRNA in the midgut; sPxsNPF-1 without inhibitor, replicate 1", "value": 1.68}, {"measurement": "PxHK relative expression", "setting": "PxHK mRNA in the midgut; sPxsNPF-1 without inhibitor, replicate 2", "value": 1.93}, {"measurement": "PxHK relative expression", "setting": "PxHK mRNA in the midgut; sPxsNPF-1 without inhibitor, replicate 3", "value": 1.52}, {"measurement": "PxHK relative expression", "setting": "PxHK mRNA in the midgut; sPxsNPF-1 without inhibitor, replicate 4", "value": 1.60}, {"measurement": "PxHK relative expression", "setting": "PxHK mRNA in the midgut; sPxsNPF-1 without inhibitor, replicate 5", "value": 1.89}, {"measurement": "feeding interval time", "setting": "P. xylostella larvae", "value": "longer"}, {"measurement": "feeding time", "setting": "P. xylostella larvae", "value": "unaffected"}]}
